pIC50: −log10 of the molar value. Activity calls are given as the source filed them. The rule behind the calls is not given here.
Columns and labels:
[1] = target: T1, Histone-lysine N-methyltransferase, H3 lysine-79 specific (Homo sapiens, UniProt Q8TEK3); test: Inhibition of 0.05 nM DOT1L (2 to 416 residues) (unknown origin) using biotinylated nucleosome as substrate and [3H]SAM as co-factor preincubated for 30 mins followed by substrate and cofactor addition and measured after 180 mins by scintillation proximity assay
Target sequence in this assay (Q8TEK3 whole entry, the tested form may be a part): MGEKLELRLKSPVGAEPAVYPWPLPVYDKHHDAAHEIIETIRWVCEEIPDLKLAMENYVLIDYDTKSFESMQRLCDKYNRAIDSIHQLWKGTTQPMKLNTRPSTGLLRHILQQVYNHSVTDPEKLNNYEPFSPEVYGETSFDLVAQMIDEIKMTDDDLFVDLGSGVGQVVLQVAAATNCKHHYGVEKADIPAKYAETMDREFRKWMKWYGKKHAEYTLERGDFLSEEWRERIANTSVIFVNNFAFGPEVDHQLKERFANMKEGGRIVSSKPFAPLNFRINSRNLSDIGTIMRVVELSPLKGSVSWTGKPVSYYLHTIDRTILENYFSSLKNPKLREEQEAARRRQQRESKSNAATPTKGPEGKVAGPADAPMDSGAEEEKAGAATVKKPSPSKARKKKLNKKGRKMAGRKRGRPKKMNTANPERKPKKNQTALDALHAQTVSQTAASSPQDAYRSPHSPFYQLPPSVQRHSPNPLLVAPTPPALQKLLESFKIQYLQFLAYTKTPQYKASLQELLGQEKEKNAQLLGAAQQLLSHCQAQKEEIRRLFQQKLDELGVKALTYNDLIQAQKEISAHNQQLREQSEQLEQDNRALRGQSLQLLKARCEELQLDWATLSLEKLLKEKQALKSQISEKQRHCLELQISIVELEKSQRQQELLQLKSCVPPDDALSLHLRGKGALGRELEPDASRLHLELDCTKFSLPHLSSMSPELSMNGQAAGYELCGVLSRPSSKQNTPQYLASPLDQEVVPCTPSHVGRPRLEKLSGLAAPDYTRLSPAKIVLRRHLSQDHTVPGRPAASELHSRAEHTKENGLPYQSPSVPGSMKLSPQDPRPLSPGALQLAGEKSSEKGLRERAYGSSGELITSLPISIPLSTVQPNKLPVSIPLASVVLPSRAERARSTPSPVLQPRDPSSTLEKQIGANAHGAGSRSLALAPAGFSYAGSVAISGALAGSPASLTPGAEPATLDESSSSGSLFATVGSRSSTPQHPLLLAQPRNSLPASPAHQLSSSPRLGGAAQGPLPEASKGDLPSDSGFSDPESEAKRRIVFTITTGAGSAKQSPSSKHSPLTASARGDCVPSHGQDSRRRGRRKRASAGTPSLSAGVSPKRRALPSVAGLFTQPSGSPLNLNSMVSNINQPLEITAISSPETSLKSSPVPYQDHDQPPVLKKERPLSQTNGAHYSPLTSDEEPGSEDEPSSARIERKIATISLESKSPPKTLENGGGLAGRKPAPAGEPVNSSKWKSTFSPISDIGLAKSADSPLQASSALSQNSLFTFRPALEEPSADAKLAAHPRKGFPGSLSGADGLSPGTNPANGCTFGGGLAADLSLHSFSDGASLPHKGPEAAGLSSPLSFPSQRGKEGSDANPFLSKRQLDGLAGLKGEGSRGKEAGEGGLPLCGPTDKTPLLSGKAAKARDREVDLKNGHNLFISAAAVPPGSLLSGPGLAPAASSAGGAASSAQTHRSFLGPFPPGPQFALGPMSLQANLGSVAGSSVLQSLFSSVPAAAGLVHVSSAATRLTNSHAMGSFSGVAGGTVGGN

[2] = target: T1, Histone-lysine N-methyltransferase, H3 lysine-79 specific; test: Binding affinity to DOT1l (unknown origin) assessed as dissociation half life by SPR assay
Target sequence in this assay (Q8TEK3 whole entry, looked up, the tested form may be a part): as the sequence (Q8TEK3 whole entry, the tested form may be a part) above

[3] = Drug concentration in C57BL/6 mouse blood at 300 mg/kg, po measured after 24 hrs; type: ADME, organism-based; settings: read-out: Drug uptake
[4] = Drug concentration in C57BL/6 mouse blood at 300 mg/kg, po administered daily for 7 days; type: ADME, organism-based; settings: in vivo, 168 h
[5] = Toxicity in C57BL/6 mouse xenografted with human MV4-11 cells at 300 mg/kg, po; type: organism-based; settings: in vivo
[6] = tested on: Mus musculus; test: In vivo inhibition of DOT1L in C57BL/6 mouse xenografted with human MV4-11 cells assessed as reduction in HOXA9 gene expression at <6 fold 300 mg/kg, po relative to control; type: functional
[7] = target: N-lysine methyltransferase SMYD2 (Homo sapiens) (UniProt Q9NRG4); test: Inhibition of SmyD2 (unknown origin) at <5 uM using p53 (363 to 393 residues) as substrate in presence of co-factor SAM by LC-MS analysis
[8] = target: T2, Histone-lysine N-methyltransferase SETD7 (Homo sapiens) (UniProt Q8WTS6); test: Inhibition of Set7/9 (unknown origin) at <5 uM using H3 (1 to 21) as substrate in presence of co-factor SAM by LC-MS analysis
T2 sequence (whole entry): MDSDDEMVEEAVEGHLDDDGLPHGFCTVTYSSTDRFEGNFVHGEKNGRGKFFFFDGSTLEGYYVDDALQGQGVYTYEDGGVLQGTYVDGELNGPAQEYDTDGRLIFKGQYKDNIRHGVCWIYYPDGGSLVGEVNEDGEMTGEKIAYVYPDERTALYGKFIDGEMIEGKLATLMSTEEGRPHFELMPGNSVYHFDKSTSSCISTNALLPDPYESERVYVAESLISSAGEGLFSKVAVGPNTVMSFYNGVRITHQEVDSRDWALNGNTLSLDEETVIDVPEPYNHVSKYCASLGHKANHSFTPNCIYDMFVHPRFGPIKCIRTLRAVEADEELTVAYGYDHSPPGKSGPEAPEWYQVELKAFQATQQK

[9] = target: T3, Histone-lysine N-methyltransferase EHMT2 (Homo sapiens) (UniProt Q96KQ7); test: Inhibition of G9a (unknown origin) at <5 uM using histone H3 peptide (1 to 21) as substrate in presence of co-factor SAM by LC-MS analysis
T3 sequence (whole entry): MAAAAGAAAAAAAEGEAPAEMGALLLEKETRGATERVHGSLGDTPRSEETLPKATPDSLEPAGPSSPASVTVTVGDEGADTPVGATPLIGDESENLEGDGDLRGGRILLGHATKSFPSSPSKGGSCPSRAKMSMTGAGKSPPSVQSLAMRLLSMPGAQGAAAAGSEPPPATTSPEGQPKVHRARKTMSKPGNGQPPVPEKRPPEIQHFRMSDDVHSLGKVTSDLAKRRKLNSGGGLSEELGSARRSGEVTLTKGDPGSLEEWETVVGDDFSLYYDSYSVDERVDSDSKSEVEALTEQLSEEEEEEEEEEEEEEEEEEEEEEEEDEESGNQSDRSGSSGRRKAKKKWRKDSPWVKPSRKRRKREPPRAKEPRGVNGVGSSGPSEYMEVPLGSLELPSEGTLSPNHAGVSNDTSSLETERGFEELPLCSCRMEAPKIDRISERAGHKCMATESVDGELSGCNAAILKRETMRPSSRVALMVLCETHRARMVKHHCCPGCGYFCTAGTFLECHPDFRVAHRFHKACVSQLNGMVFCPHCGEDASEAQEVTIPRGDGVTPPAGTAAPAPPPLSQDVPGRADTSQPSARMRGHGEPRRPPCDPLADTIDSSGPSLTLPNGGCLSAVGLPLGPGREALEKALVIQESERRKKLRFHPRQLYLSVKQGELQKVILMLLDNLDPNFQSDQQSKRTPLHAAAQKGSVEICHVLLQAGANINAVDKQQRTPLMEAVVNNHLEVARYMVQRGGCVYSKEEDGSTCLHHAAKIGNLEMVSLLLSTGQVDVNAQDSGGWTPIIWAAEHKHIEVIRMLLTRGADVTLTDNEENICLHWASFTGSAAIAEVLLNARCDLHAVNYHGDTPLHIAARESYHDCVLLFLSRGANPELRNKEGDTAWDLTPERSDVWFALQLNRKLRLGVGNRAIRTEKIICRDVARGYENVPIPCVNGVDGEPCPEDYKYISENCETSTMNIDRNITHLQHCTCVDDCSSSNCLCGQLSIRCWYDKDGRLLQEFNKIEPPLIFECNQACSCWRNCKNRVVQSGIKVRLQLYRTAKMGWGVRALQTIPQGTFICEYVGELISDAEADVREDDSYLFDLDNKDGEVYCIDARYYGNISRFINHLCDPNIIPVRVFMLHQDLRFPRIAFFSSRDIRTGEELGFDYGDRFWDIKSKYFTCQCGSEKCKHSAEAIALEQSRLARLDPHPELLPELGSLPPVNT

[10] = target: T4, Histone-arginine methyltransferase CARM1 (Homo sapiens) (UniProt Q86X55); test: Inhibition of CARM1 (unknown origin) at <5 uM using histone H3 peptide (1 to 21) as substrate in presence of co-factor SAM by LC-MS analysis
T4 sequence (whole entry): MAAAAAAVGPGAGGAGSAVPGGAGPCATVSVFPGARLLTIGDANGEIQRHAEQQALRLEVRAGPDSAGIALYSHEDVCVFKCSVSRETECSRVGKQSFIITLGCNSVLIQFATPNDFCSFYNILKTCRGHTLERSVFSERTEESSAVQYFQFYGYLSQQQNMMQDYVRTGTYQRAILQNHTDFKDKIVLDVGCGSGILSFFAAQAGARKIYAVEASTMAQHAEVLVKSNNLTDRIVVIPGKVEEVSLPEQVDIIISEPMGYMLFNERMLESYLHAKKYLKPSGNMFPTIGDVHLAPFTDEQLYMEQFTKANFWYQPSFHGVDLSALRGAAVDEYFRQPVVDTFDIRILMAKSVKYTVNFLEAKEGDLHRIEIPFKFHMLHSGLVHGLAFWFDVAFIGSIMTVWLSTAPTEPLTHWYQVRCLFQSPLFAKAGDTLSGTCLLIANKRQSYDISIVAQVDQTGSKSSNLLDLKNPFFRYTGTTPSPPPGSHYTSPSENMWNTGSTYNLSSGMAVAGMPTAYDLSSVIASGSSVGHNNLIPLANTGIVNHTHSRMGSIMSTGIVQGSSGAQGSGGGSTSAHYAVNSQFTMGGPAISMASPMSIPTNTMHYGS

N-lysine methyltransferase SMYD2 (Homo sapiens), sequence (Q9NRG4 whole entry, the tested form may be a part): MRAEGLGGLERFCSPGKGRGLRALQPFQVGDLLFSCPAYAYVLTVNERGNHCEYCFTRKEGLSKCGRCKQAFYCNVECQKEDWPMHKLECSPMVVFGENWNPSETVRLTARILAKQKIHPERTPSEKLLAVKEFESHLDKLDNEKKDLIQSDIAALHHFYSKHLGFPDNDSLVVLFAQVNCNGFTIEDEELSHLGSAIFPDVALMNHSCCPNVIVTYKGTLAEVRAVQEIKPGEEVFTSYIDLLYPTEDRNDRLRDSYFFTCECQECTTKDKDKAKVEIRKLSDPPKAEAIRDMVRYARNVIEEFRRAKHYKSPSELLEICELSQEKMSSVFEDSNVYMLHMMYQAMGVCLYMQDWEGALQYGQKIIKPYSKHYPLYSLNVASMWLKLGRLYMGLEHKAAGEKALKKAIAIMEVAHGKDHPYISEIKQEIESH

Molecule COc1nc(Nc2cc(S(C)(=O)=O)ccc2N[C@@H](c2cccc3c2OC(F)(F)O3)c2ncccc2Cl)nc(N2CCNCC2)n1 has a pIC50 [1] of 9.96, a T1/2 [2] of over 5 h and a concentration at 24 h [3] of 4 to 8 µM. The Drug uptake [4] was “Active”, the Activity [5] was “Toxic” and the “fold change (FC)” value [6] was under 0.5. The inhibition [7] was “inactive”, the inhibition [8] was “inactive” and the inhibition [9] was “inactive”. The inhibition [10] was “inactive”.
